Results from PubChem BioAssay (NCI).
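Tested at 5 concentrations; 48 h exposure; 96-well plates; endpoints linearly interpolated, else capped at highest concentration. TGI denotes the concentration required for complete inhibition of growth.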

Key:
Test in all cases: growth of human tumour cells (NCI), 48 h
786-0 renal = tested on: 786-0 renal
A498 renal = tested on: A498 renal
CAKI-1 renal = tested on: CAKI-1 renal
COLO 205 colon = tested on: COLO 205 colon
HCC-2998 colon = tested on: HCC-2998 colon
HS 578T breast = tested on: HS 578T breast
HT29 colon = tested on: HT29 colon
LOX IMVI melanoma = tested on: LOX IMVI melanoma
MALME-3M melanoma = tested on: MALME-3M melanoma
MDA-MB-231 breast = tested on: MDA-MB-231 breast
MOLT-4 leukemia = tested on: MOLT-4 leukemia
NCI-H226 lung = tested on: NCI-H226 lung
NCI-H23 lung = tested on: NCI-H23 lung
OVCAR-4 ovarian = tested on: OVCAR-4 ovarian
OVCAR-5 ovarian = tested on: OVCAR-5 ovarian
SF-539 CNS = tested on: SF-539 CNS
TK-10 renal = tested on: TK-10 renal
U251 CNS = tested on: U251 CNS
T-47D breast = tested on: T-47D breast

| SMILES | TGI (786-0 renal) [µM] | TGI (A498 renal) [µM] | TGI (CAKI-1 renal) [µM] | TGI (COLO 205 colon) [µM] | TGI (HCC-2998 colon) [µM] | TGI (HS 578T breast) [µM] | TGI (HT29 colon) [µM] | TGI (LOX IMVI melanoma) [µM] | TGI (MALME-3M melanoma) [µM] | TGI (MDA-MB-231 breast) [µM] | TGI (MOLT-4 leukemia) [µM] | TGI (NCI-H226 lung) [µM] | TGI (NCI-H23 lung) [µM] | TGI (OVCAR-4 ovarian) [µM] | TGI (OVCAR-5 ovarian) [µM] | TGI (SF-539 CNS) [µM] | TGI (TK-10 renal) [µM] | TGI (U251 CNS) [µM] | TGI (T-47D breast) [µM] |
| --- | --- | --- | --- | --- | --- | --- | --- | --- | --- | --- | --- | --- | --- | --- | --- | --- | --- | --- | --- |
| CC[C@@H](CCCCC1CC[C@H]2CC(=O)C[C@@H]12)OC (stereo not given in full) | > 100 | > 100 | > 100 | > 100 | > 100 | > 100 | > 100 | > 100 | > 100 | > 100 | > 100 | > 100 | > 100 | > 100 | > 100 | > 100 | > 100 | > 100 | – |
| O=c1oc(-c2ccc(O)cc2)cc2cc(O)ccc12 | > 100 | 51.7 | > 100 | 50.5 | 65.9 | 64 | – | – | 72.3 | – | 69.2 | – | 57.6 | > 100 | > 100 | > 100 | > 100 | – | 49 |
| O=c1cc(-c2ccccc2)[nH]c2cc(F)cc(F)c12 | > 100 | – | > 100 | 38.9 | – | – | > 100 | > 100 | 79.4 | – | > 100 | 80.5 | > 100 | > 100 | > 100 | 85.5 | > 100 | > 100 | – |
| COC(=O)CCC1(CCC(=O)OC)CCCCCCC(CCC(=O)OC)(CCC(=O)OC)C(=O)C1=O | > 100 | > 100 | > 100 | > 100 | > 100 | > 100 | > 100 | > 100 | > 100 | – | – | > 100 | > 100 | – | > 100 | > 100 | > 100 | > 100 | > 100 |
| COc1ccc(-c2c(-c3ccc(OC)cc3)n3c(=O)n(C)c(=O)n23)cc1 | > 100 | 95.3 | > 100 | > 100 | > 100 | – | – | > 100 | > 100 | > 100 | > 100 | > 100 | > 100 | > 100 | – | 72.9 | > 100 | > 100 | 57.1 |
| Cc1ccc(/C=C2\NC(=S)NC2=O)cc1 | > 100 | – | > 100 | > 100 | > 100 | > 100 | > 100 | > 100 | > 100 | > 100 | > 100 | > 100 | > 100 | > 100 | > 100 | > 100 | > 100 | > 100 | > 100 |
| COc1ccc2c(O)c(S(=O)(=O)c3ccc(C)cc3)c(=O)oc2c1OC | > 100 | – | > 100 | > 100 | > 100 | > 100 | > 100 | – | > 100 | > 100 | > 100 | > 100 | > 100 | > 100 | > 100 | > 100 | > 100 | > 100 | > 100 |
| CCOC(=O)c1cn2c(n1)sc1cc(OC)ccc12 | > 100 | > 100 | > 100 | > 27.5 | > 100 | 81.2 | 20.2 | > 100 | > 100 | > 100 | > 100 | 98.2 | > 100 | > 100 | > 100 | > 100 | > 100 | 21.9 | – |
| COc1ccc(-c2oc3cc(OC)c(OC)c(O)c3c(=O)c2OC)cc1 | 68.2 | – | > 100 | > 100 | > 100 | 72.3 | > 100 | > 100 | > 100 | 50 | > 100 | > 100 | – | > 100 | > 100 | > 100 | > 100 | > 100 | > 100 |
| O=c1[nH]ncc2[nH]c3c4ccccc4ccc3c12 | > 100 | – | > 100 | 96.1 | > 100 | – | > 100 | > 100 | > 100 | – | > 100 | – | – | > 100 | > 100 | > 100 | > 100 | 90.7 | > 100 |
| O=C(O)c1nc2ccc(C(F)(F)F)cc2nc1Nc1ccc(Cl)c(Cl)c1 | 23.7 | 27.4 | 30.6 | 25.7 | 17.6 | 41.6 | 27.1 | 21.5 | 31 | 26.7 | 17.3 | 24.9 | 19 | 76.1 | 28.9 | – | > 100 | 14.7 | – |
| N=c1oc2ccccc2cc1-c1nc2ccccc2[nH]1 | 28.8 | – | > 100 | > 100 | > 100 | > 100 | > 100 | > 100 | 72 | 57.6 | > 100 | > 100 | – | > 100 | > 100 | > 100 | 38.4 | > 100 | > 100 |
| CC1(C)OCC(C2OC3OC(C)(C)OC3C2c2ccccc2)O1 (stereo not given) | > 100 | – | – | 54 | > 100 | 64.4 | > 100 | > 100 | > 100 | > 100 | > 100 | 93.6 | 97.2 | > 100 | > 100 | > 100 | > 100 | > 100 | > 100 |
| CC12CC(=O)Nc3ccccc3N1C(c1ccccc1)=NO2 (stereo not given) | > 100 | > 100 | > 100 | > 100 | > 100 | > 100 | > 100 | – | > 100 | > 100 | > 100 | > 100 | > 100 | > 100 | > 100 | > 100 | > 100 | > 100 | – |
